Assays:
Lepeophtherius salmonis = settings: 1.0 mg/kg/d in medicated feed to Atlantic salmon for 7 consecutive days; lice counted 10 days after end of treatment; cited from earlier work
Lepeophtheirus salmonis = test: Efficacy of medicated feed against an existing experimental sea lice infestation on Atlantic salmon post-smolts (Example 1); format: in vivo
Procedure: A randomized, blinded, parallel-group, negative-controlled study was conducted in which, the active ingredient was administered in medicated feed to laboratory-maintained Atlantic salmon (Salmo salar) post-smolts in seawater. Smolts were experimentally infested with sea lice (Lepeophtheirus salmonis) under laboratory conditions prior to being fed the medicated diet to assess the efficacy of the active ingredient in reducing the number of sea lice/fish.
Healthy Atlantic salmon post-smolts (n=750) were selected for enrollment and distributed sequentially across ten (10) study tanks. Fish were weighed individually during the allocation of fish to tanks on study day (SD)-95, with SD 0 serving as the first day of treatment. Fish were weighed on SD −2, +8, +18, +22, and +30. The fish weights on SD −2 were used to estimate the average weight of all fish and used to determine the feeding amount during the treatment period (SD 0−+6). A target of total of 10 fish/tank were lethally sampled, lice-counted, and weight and length were measured. The mean weight of fish in tanks on SD −2 was 829.9±161.7 g.
Atlantic salmon post-smolts were infested once with sea lice using an experimental challenge model. About 50 copepodids (Lepeophtheirus salmonis) per fish were added to each tank on SD −17. During the study the water temperature varied between 8 and 12° C. The water oxygen saturation was consistently above 80% throughout the study.
Five treatment groups were randomly assigned to ten study tanks so that there were 2 tanks per treatment group. Study personnel were blinded as to the identity of the treatments for each tank.
Sea lice were counted four times during the study. All sampled fish were euthanized and lice counted. The baseline count occurred on SD −2 (with 10 fish per tank), corresponding to ˜160 degree days (15 d) post-infestation. The time was sufficient for lice development to the chalimus stage. Count 1 occurred on SD +8 (with 20 fish per tank) corresponding to ˜260 degree days (25 d) post infestation and 2 days post treatment. The time was sufficient for lice development into chalimus and pre-adult stages in the control tanks. Count 2 occurred on SD +18 (with 20 fish per tank) corresponding to ˜360 degree days (35 d) post infestation and 12 days post treatment. The time was sufficient for lice development into adult males and females in the control tanks. Count 3 occurred on SD +22 (with 20 fish per tank) corresponding to ˜400 degree days (39 d) post infestation and 16 days post treatment. The time was sufficient for lice development into adult males and females with no chalimus stages present in the control tanks.
Medicated feed was prepared by dry coating commercially available fish feed pellets with a premix containing the active ingredient to reach a content of about 1.6, 4.0. 8.0 and 19.9 mg/kg. The fish pellets were then coated with feed grade herring fish oil at an inclusion rate of about 0.75% w/w (7.5 g/kg feed) The consumption rate of the medicated feed was set to 0.628% body weight.
Treatment efficacy was computed for total number of sea lice/fish and total number of mobile life stages, i.e., preadult & adult sea lice/fish for each post-treatment sea lice counting occasion. For the total number of attached/fish, treatment efficacy was computed at the first count post-treatment. Percent efficacy was computed using Abbott's formula for each treatment group compared to control as follows:
[formula] where MC and MT are the arithmetic means of sea lice counts in the untreated control and S-roxapin-treated groups, respectively.
Treatments were considered efficacious when the percent efficacy was ≥90% for treated groups compared to untreated control groups.
The mean sea lice abundance was reported for different parasite life stages (attached, mobile, and total (attached and mobile together)) and computed as the number of lice on salmon divided by the number of sampled fish per tank. […]

[1] = 0.010 mg/kg/d in feed 7 d, 2 DPT
[2] = 0.010 mg/kg/d in feed 7 d, 12 DPT
[3] = 0.010 mg/kg/d in feed 7 d, 16 DPT
[4] = 0.025 mg/kg/d in feed 7 d, 2 DPT
[5] = 0.025 mg/kg/d in feed 7 d, 12 DPT
[6] = 0.025 mg/kg/d in feed 7 d, 16 DPT
[7] = 0.050 mg/kg/d in feed 7 d, 2 DPT
[8] = 0.050 mg/kg/d in feed 7 d, 12 DPT
[9] = 0.050 mg/kg/d in feed 7 d, 16 DPT
[10] = 0.125 mg/kg/d in feed 7 d, 2 DPT
[11] = 0.125 mg/kg/d in feed 7 d, 12 DPT
[12] = 0.125 mg/kg/d in feed 7 d, 16 DPT

C#CCNC(=O)CNC(=O)c1sc(C2=NO[C@@](c3cc(Cl)c(Cl)c(Cl)c3)(C(F)(F)F)C2)cc1C [S-roxapin, (S)-3-methyl-N-(2-oxo-2-(prop-2-yn-1-ylamino)ethyl)-5-(5-(3,4,5-trichlorophenyl)-5-(trifluoromethyl)-4,5-dihydroisoxazol-3-yl)thiophene-2-carboxamide]
efficacy against chalimus and pre-adult/adult stages of the sea louse (Lepeophtherius salmonis): 100% | Number of Attached Lice/Fish % Efficacy (Lepeophtheirus salmonis; [1]): 96.2% | Number of Attached Lice/Fish Mean ± SD (Lepeophtheirus salmonis; [1]): 0.1 ± 0.3 lice/fish | Number of Mobile Lice/Fish % Efficacy (Lepeophtheirus salmonis; [1]): 89.1% | Number of Mobile Lice/Fish Mean ± SD (Lepeophtheirus salmonis; [1]): 1.7 ± 2.2 lice/fish | Total Number of Lice/Fish % Efficacy (Lepeophtheirus salmonis; [1]): 90.3% | Total Number of Lice/Fish Mean ± SD (Lepeophtheirus salmonis; [1]): 1.8 ± 2.4 lice/fish | Number of Attached Lice/Fish Mean ± SD (Lepeophtheirus salmonis; [2]): 0.0 ± 0.0 lice/fish | Number of Mobile Lice/Fish % Efficacy (Lepeophtheirus salmonis; [2]): 94.1% | Number of Mobile Lice/Fish Mean ± SD (Lepeophtheirus salmonis; [2]): 1.1 ± 3.0 lice/fish | Total Number of Lice/Fish % Efficacy (Lepeophtheirus salmonis; [2]): 94.1% | Total Number of Lice/Fish Mean ± SD (Lepeophtheirus salmonis; [2]): 1.1 ± 3.0 lice/fish | Number of Attached Lice/Fish Mean ± SD (Lepeophtheirus salmonis; [3]): 0.0 ± 0.0 lice/fish | Number of Mobile Lice/Fish % Efficacy (Lepeophtheirus salmonis; [3]): 97.7% | Number of Mobile Lice/Fish Mean ± SD (Lepeophtheirus salmonis; [3]): 0.5 ± 0.7 lice/fish | Total Number of Lice/Fish % Efficacy (Lepeophtheirus salmonis; [3]): 97.7% | Total Number of Lice/Fish Mean ± SD (Lepeophtheirus salmonis; [3]): 0.5 ± 0.7 lice/fish | Number of Attached Lice/Fish % Efficacy (Lepeophtheirus salmonis; [4]): 98.5% | Number of Attached Lice/Fish Mean ± SD (Lepeophtheirus salmonis; [4]): 0.1 ± 0.1 lice/fish | Number of Mobile Lice/Fish % Efficacy (Lepeophtheirus salmonis; [4]): 98.8% | Number of Mobile Lice/Fish Mean ± SD (Lepeophtheirus salmonis; [4]): 0.2 ± 0.3 lice/fish | Total Number of Lice/Fish % Efficacy (Lepeophtheirus salmonis; [4]): 98.8% | Total Number of Lice/Fish Mean ± SD (Lepeophtheirus salmonis; [4]): 0.2 ± 0.3 lice/fish | Number of Attached Lice/Fish Mean ± SD (Lepeophtheirus salmonis; [5]): 0.1 ± 0.2 lice/fish | Number of Mobile Lice/Fish % Efficacy (Lepeophtheirus salmonis; [5]): 99.9% | Number of Mobile Lice/Fish Mean ± SD (Lepeophtheirus salmonis; [5]): 0.0 ± 0.1 lice/fish | Total Number of Lice/Fish % Efficacy (Lepeophtheirus salmonis; [5]): 99.5% | Total Number of Lice/Fish Mean ± SD (Lepeophtheirus salmonis; [5]): 0.1 ± 0.2 lice/fish | Number of Attached Lice/Fish Mean ± SD (Lepeophtheirus salmonis; [6]): 0.0 ± 0.0 lice/fish | Number of Mobile Lice/Fish % Efficacy (Lepeophtheirus salmonis; [6]): 99.9% | Number of Mobile Lice/Fish Mean ± SD (Lepeophtheirus salmonis; [6]): 0.0 ± 0.1 lice/fish | Total Number of Lice/Fish % Efficacy (Lepeophtheirus salmonis; [6]): 99.9% | Total Number of Lice/Fish Mean ± SD (Lepeophtheirus salmonis; [6]): 0.0 ± 0.1 lice/fish | Number of Attached Lice/Fish % Efficacy (Lepeophtheirus salmonis; [7]): 92.3% | Number of Attached Lice/Fish Mean ± SD (Lepeophtheirus salmonis; [7]): 0.3 ± 0.3 lice/fish | Number of Mobile Lice/Fish % Efficacy (Lepeophtheirus salmonis; [7]): 99.7% | Number of Mobile Lice/Fish Mean ± SD (Lepeophtheirus salmonis; [7]): 0.1 ± 0.1 lice/fish | Total Number of Lice/Fish % Efficacy (Lepeophtheirus salmonis; [7]): 98.4% | Total Number of Lice/Fish Mean ± SD (Lepeophtheirus salmonis; [7]): 0.3 ± 0.3 lice/fish | Number of Attached Lice/Fish Mean ± SD (Lepeophtheirus salmonis; [8]): 0.0 ± 0.0 lice/fish | Number of Mobile Lice/Fish Mean ± SD (Lepeophtheirus salmonis; [8]): 0.1 ± 0.2 lice/fish | Total Number of Lice/Fish % Efficacy (Lepeophtheirus salmonis; [8]): 99.6% | Total Number of Lice/Fish Mean ± SD (Lepeophtheirus salmonis; [8]): 0.1 ± 0.2 lice/fish | Number of Attached Lice/Fish Mean ± SD (Lepeophtheirus salmonis; [9]): 0.0 ± 0.0 lice/fish | Number of Mobile Lice/Fish % Efficacy (Lepeophtheirus salmonis; [9]): 99.7% | Number of Mobile Lice/Fish Mean ± SD (Lepeophtheirus salmonis; [9]): 0.1 ± 0.2 lice/fish | Total Number of Lice/Fish % Efficacy (Lepeophtheirus salmonis; [9]): 99.7% | Total Number of Lice/Fish Mean ± SD (Lepeophtheirus salmonis; [9]): 0.1 ± 0.2 lice/fish | Number of Attached Lice/Fish % Efficacy (Lepeophtheirus salmonis; [10]): 93.8% | Number of Attached Lice/Fish Mean ± SD (Lepeophtheirus salmonis; [10]): 0.2 ± 0.3 lice/fish | Number of Mobile Lice/Fish % Efficacy (Lepeophtheirus salmonis; [10]): 99.8% | Number of Mobile Lice/Fish Mean ± SD (Lepeophtheirus salmonis; [10]): 0.0 ± 0.1 lice/fish | Total Number of Lice/Fish % Efficacy (Lepeophtheirus salmonis; [10]): 98.8% | Total Number of Lice/Fish Mean ± SD (Lepeophtheirus salmonis; [10]): 0.2 ± 0.4 lice/fish | Number of Attached Lice/Fish Mean ± SD (Lepeophtheirus salmonis; [11]): 0.0 ± 0.1 lice/fish | Number of Mobile Lice/Fish % Efficacy (Lepeophtheirus salmonis; [11]): 100.0% | Number of Mobile Lice/Fish Mean ± SD (Lepeophtheirus salmonis; [11]): 0.0 ± 0.0 lice/fish | Total Number of Lice/Fish % Efficacy (Lepeophtheirus salmonis; [11]): 99.9% | Total Number of Lice/Fish Mean ± SD (Lepeophtheirus salmonis; [11]): 0.0 ± 0.1 lice/fish | Number of Attached Lice/Fish Mean ± SD (Lepeophtheirus salmonis; [12]): 0.1 ± 0.2 lice/fish | Number of Mobile Lice/Fish % Efficacy (Lepeophtheirus salmonis; [12]): 99.9% | Number of Mobile Lice/Fish Mean ± SD (Lepeophtheirus salmonis; [12]): 0.1 ± 0.2 lice/fish | Total Number of Lice/Fish % Efficacy (Lepeophtheirus salmonis; [12]): 99.6% | Total Number of Lice/Fish Mean ± SD (Lepeophtheirus salmonis; [12]): 0.1 ± 0.2 lice/fish | efficacy compared with the lowest dosage (0.010 mg/kg/d) (Lepeophtheirus salmonis; dosages of 0.025, 0.050 and 0.125 mg/kg/d in medicated feed over 7 consecutive days): significantly higher efficacy | observed minimum efficacious dosage relative to U.S. Pat. No. 9,920,037 (1.0 mg/kg/d) (Lepeophtheirus salmonis; medicated feed over 7 consecutive days to salmon, provisionally concluded): 20-40 times lower
